Test results: paper PMC7932537, “Quantitative profiling of protease specificity” (PLoS Computational Biology, 2021)

Experiments:
MMP-9 [1] = experiment: Substrate phage display with NGS: relative probability (RP) of P3-P1' tetramer clusters; format: biochemical, human; settings: MMP9; RP of the substrate's P3-P1' tetramer, substrate phage display with NGS;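 note: ratio of tetramer probability after protease selection to that in naive phage library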
MMP-2 = target: T1, MMP-2 (Homo sapiens, UniProt P08253); experiment: K(obs) of individual phage substrates (set of 1369); format: biochemical; settings: MMP2; individual phage substrate from the set of 1369 peptides; hyphen in the sequence marks the cleavage position
T1 sequence (P08253 110-660): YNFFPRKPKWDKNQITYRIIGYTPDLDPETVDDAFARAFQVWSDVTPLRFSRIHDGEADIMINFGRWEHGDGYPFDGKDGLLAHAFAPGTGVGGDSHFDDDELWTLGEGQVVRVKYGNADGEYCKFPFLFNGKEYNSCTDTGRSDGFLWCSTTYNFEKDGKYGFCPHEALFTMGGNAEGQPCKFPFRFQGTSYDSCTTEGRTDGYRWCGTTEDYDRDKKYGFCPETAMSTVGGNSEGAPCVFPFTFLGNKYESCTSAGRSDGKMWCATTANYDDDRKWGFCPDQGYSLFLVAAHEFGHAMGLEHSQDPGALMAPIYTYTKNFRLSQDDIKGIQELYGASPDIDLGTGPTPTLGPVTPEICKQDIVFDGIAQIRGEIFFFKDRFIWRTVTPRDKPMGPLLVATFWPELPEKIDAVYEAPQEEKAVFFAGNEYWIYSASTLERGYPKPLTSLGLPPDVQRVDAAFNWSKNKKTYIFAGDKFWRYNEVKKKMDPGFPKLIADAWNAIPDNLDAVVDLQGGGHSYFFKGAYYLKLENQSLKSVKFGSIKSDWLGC

MMP-9 [2] = target: MMP-9 (Homo sapiens, UniProt P14780); experiment: as above; format: biochemical; settings: MMP9; individual phage substrate of the set of 1369 peptides; dash in sequence marks cleavage position
MMP-9 (Homo sapiens, UniProt P14780), sequence (P14780 94-707): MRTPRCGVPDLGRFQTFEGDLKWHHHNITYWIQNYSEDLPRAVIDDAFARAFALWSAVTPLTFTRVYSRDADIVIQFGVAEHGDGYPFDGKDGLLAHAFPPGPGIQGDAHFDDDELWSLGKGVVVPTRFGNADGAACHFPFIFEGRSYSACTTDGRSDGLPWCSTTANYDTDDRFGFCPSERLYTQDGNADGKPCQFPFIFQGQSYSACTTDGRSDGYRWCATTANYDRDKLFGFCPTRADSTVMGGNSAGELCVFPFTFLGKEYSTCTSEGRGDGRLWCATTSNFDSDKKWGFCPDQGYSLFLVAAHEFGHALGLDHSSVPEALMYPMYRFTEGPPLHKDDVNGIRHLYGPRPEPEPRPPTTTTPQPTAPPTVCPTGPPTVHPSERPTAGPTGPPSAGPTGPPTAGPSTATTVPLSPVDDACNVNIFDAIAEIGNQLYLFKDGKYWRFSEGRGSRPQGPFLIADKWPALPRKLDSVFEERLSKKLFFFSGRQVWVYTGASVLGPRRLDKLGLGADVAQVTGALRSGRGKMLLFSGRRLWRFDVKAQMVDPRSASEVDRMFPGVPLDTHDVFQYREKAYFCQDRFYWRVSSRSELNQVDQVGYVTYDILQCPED

Row | Substance | Kobs (MMP-2) | Kobs (MMP-9 [2]) | relative probability (RP) (MMP-9 [1])
1 | GRPLN-LSTAS | 12792.1 M⁻¹ s⁻¹ | 12792.1 M⁻¹ s⁻¹ | 48.0943
2 | AHPSA-LTASG | 12792.1 M⁻¹ s⁻¹ | 12792.1 M⁻¹ s⁻¹ | 47.6113
3 | HVVAK-MTASG | 6396.07 M⁻¹ s⁻¹ | 1981.53 M⁻¹ s⁻¹ | 0.5992
4 | SGPRL-YIGTA | 5667.28 M⁻¹ s⁻¹ | 12792.1 M⁻¹ s⁻¹ | 32.3351
5 | SGASN-LRGTA | 12792.1 M⁻¹ s⁻¹ | 12792.1 M⁻¹ s⁻¹ | 27.6194
6 | LQIGH-LTASG | 12792.1 M⁻¹ s⁻¹ | 1870.4 M⁻¹ s⁻¹ | 14.7862
7 | SGPRF-LLDTA | 5889.62 M⁻¹ s⁻¹ | 7386.83 M⁻¹ s⁻¹ | 42.4535
8 | KAPAH-LTASG | 12792.1 M⁻¹ s⁻¹ | 12792.1 M⁻¹ s⁻¹ | 44.1453
9 | SGPRS-HRVTA | 3637.04 M⁻¹ s⁻¹ | 3253.29 M⁻¹ s⁻¹ | 23.1314
10 | EHPGL-LTASG | 2996.69 M⁻¹ s⁻¹ | 113.394 M⁻¹ s⁻¹ | 19.6268
11 | MSPRK-FTASG | 12792.1 M⁻¹ s⁻¹ | 12792.1 M⁻¹ s⁻¹ | 2.647
12 | HAPSL-YTASG | 12792.1 M⁻¹ s⁻¹ | 12792.1 M⁻¹ s⁻¹ | 23.6706
13 | GGPAP-MWTAS | 2476.66 M⁻¹ s⁻¹ | 5667.28 M⁻¹ s⁻¹ | 45.1106
14 | KSPRP-YTASG | 12792.1 M⁻¹ s⁻¹ | 12792.1 M⁻¹ s⁻¹ | 47.6856
15 | KIPSA-LTASG | 12792.1 M⁻¹ s⁻¹ | 9740.44 M⁻¹ s⁻¹ | 47.6113
16 | SVPSA-ITASG | 12792.1 M⁻¹ s⁻¹ | 12792.1 M⁻¹ s⁻¹ | 45.9388

Row | Substance | Kobs (MMP-2) | Kobs (MMP-9 [2]) | relative probability (RP) (MMP-9 [1])
17 | SGPSG-WTATA | 7815.03 M⁻¹ s⁻¹ | 6131.32 M⁻¹ s⁻¹ | 29.7011
18 | SGPRF-LIGTA | 3964.21 M⁻¹ s⁻¹ | 6131.32 M⁻¹ s⁻¹ | 42.4535
19 | SRPVY-LTASG | 12792.1 M⁻¹ s⁻¹ | 12792.1 M⁻¹ s⁻¹ | 32.5397
20 | SNPFK-YTASG | 0 M⁻¹ s⁻¹ | 5461.43 M⁻¹ s⁻¹ | 32.6605
21 | IFARS-LTASG | 12792.1 M⁻¹ s⁻¹ | 12792.1 M⁻¹ s⁻¹ | 26.1862
22 | RLPKL-LTASG | 1816.46 M⁻¹ s⁻¹ | 6688.74 M⁻¹ s⁻¹ | 35.7561
23 | NAPNA-LTASG | 12792.1 M⁻¹ s⁻¹ | 12792.1 M⁻¹ s⁻¹ | 41.7392
24 | VKPSK-LTASG | 12792.1 M⁻¹ s⁻¹ | 12792.1 M⁻¹ s⁻¹ | 38.9571
25 | VYPGK-MTASG | 8941.32 M⁻¹ s⁻¹ | 1239.69 M⁻¹ s⁻¹ | 16.9669
26 | ILVWN-YTASG | 4922.1 M⁻¹ s⁻¹ | 12792.1 M⁻¹ s⁻¹ | 30.7196
27 | PSLAE-LTASG | 8941.32 M⁻¹ s⁻¹ | 654.784 M⁻¹ s⁻¹ | 0.4438
28 | GFPRA-FRTAS | 12792.1 M⁻¹ s⁻¹ | 7815.03 M⁻¹ s⁻¹ | 44.1248
29 | ATLAA-LTASG | 12792.1 M⁻¹ s⁻¹ | 0 M⁻¹ s⁻¹ | 6.32
30 | ERPFF-LTASG | 12792.1 M⁻¹ s⁻¹ | 12792.1 M⁻¹ s⁻¹ | 36.9909
31 | KMPST-LTASG | 12792.1 M⁻¹ s⁻¹ | 6396.07 M⁻¹ s⁻¹ | 36.3405

The next lines start with results.

Row | Kobs (MMP-2) | Kobs (MMP-9 [2]) | Substance | relative probability (RP) (MMP-9 [1])
32 | 12792.1 M⁻¹ s⁻¹ | 0 M⁻¹ s⁻¹ | PKLAA-ITASG | 1.188
33 | 12792.1 M⁻¹ s⁻¹ | 1071.29 M⁻¹ s⁻¹ | GAPAR-FTTAS | 21.7112
34 | 12792.1 M⁻¹ s⁻¹ | 2916.17 M⁻¹ s⁻¹ | FHPSR-FTASG | 21.0555
35 | 9740.44 M⁻¹ s⁻¹ | 4613.14 M⁻¹ s⁻¹ | GGPST-LTASG | 36.3405
36 | 6688.74 M⁻¹ s⁻¹ | 9740.44 M⁻¹ s⁻¹ | GDPRW-LSTAS | 47.776
37 | 12792.1 M⁻¹ s⁻¹ | 12792.1 M⁻¹ s⁻¹ | GMPRS-YITAS | 44.546
38 | 2761.81 M⁻¹ s⁻¹ | 8941.32 M⁻¹ s⁻¹ | SGALN-FYSTA | 19.1713
39 | 2409.72 M⁻¹ s⁻¹ | 4922.1 M⁻¹ s⁻¹ | SGPKW-MRHTA | 51.5185
40 | 12792.1 M⁻¹ s⁻¹ | 12792.1 M⁻¹ s⁻¹ | GQPRA-IRTAS | 47.8426
41 | 2916.17 M⁻¹ s⁻¹ | 7015.91 M⁻¹ s⁻¹ | SGVLS-LQSTA | 27.5596
42 | 12792.1 M⁻¹ s⁻¹ | 10866.7 M⁻¹ s⁻¹ | LIPAW-LTASG | 46.2228
43 | 3850.82 M⁻¹ s⁻¹ | 5667.28 M⁻¹ s⁻¹ | GRPAQ-MKTAS | 38.7952
44 | 12792.1 M⁻¹ s⁻¹ | 12792.1 M⁻¹ s⁻¹ | SGPSR-LTFTA | 39.8157
45 | 12792.1 M⁻¹ s⁻¹ | 12792.1 M⁻¹ s⁻¹ | KFPAS-LTASG | 46.2982
46 | 12792.1 M⁻¹ s⁻¹ | 951.362 M⁻¹ s⁻¹ | MGLAN-LTASG | 11.5381
47 | 12792.1 M⁻¹ s⁻¹ | 726.013 M⁻¹ s⁻¹ | RKLAF-LTASG | 0.6348
48 | 12792.1 M⁻¹ s⁻¹ | 12792.1 M⁻¹ s⁻¹ | SGPKQ-LRVTA | 43.3387
49 | 7015.91 M⁻¹ s⁻¹ | 517.582 M⁻¹ s⁻¹ | GMPGR-LSTAS | 29.3451
50 | 12792.1 M⁻¹ s⁻¹ | 3344.37 M⁻¹ s⁻¹ | WSPSS-YTASG | 41.6306
51 | 12792.1 M⁻¹ s⁻¹ | 8941.32 M⁻¹ s⁻¹ | MWVLS-LTASG | 27.5596
52 | 8321.48 M⁻¹ s⁻¹ | 3253.29 M⁻¹ s⁻¹ | PCPTG-LTASG | 39.8897
53 | 3079.62 M⁻¹ s⁻¹ | 12792.1 M⁻¹ s⁻¹ | SGVRA-VYSTA | 25.1531
54 | 5269.78 M⁻¹ s⁻¹ | 799.117 M⁻¹ s⁻¹ | SGPSA-LDATA | 47.6113
55 | 12792.1 M⁻¹ s⁻¹ | 12792.1 M⁻¹ s⁻¹ | GWPSE-LRTAS | 41.3266
56 | 12792.1 M⁻¹ s⁻¹ | 1610.61 M⁻¹ s⁻¹ | SSVSN-LTASG | 31.0505
57 | 4082.43 M⁻¹ s⁻¹ | 0 M⁻¹ s⁻¹ | QRVAA-VTASG | 0.4709
